Source: patent US8809348B2, “6-arylmethyl substituted pyrazolo[3,4-d]pyrimidines” (Boehringer Ingelheim International GmbH, priority 2003, dated 2014)
Counter-ions that a name gives are not always drawn.

target: T1, Murine PDE9A (Mus musculus, UniProt O70628); assay: not given; details: concentrations below 200 μM; cited from earlier work
T1 sequence (O70628 1-534): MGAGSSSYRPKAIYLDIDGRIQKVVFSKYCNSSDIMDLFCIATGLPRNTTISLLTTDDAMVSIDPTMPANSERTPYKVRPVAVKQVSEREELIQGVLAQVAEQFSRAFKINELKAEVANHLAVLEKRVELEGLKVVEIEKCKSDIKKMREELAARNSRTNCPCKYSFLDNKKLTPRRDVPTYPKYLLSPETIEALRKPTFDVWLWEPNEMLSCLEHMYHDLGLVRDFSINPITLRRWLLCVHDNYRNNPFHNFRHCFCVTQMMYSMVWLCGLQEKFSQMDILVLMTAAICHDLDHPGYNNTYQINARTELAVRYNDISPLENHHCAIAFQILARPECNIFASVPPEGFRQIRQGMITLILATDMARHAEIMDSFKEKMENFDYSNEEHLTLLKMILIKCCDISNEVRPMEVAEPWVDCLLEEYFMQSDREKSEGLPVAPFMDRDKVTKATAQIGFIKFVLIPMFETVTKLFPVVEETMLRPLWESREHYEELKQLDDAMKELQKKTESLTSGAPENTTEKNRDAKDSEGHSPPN

Row | SMILES | inhibition of murine PDE9A
1 | CC(C)Cn1c(=O)n(C)c(=O)c2[nH]cnc21 [IBMX] | not inhibited

test system: not given; assay: not given; details: not given

Row | SMILES | melting point
2 | Cc1ccccc1-n1ncc2c(=O)[nH]c(Cc3cccc(Cl)c3)nc21 (as salt: sodium) [Example 16, 6-(3-Chlorobenzyl)-1-(2-methylphenyl)-1,5-dihydro-4H-pyrazolo[3,4-d]pyrimidin-4-one] | 215 °C
3 | Cc1ccccc1-n1ncc2c(=O)[nH]c(Cc3ccccn3)nc21 (as salt: sodium) [Example 17, 1-(2-Methylphenyl)-6-(2-pyridinylmethyl)-1,5-dihydro-4H-pyrazolo[3,4-d]pyrimidin-4-one] | 162 °C
4 | CCc1ccccc1-n1ncc2c(=O)[nH]c(Cc3cccc(Cl)c3)nc21 (as salt: sodium) [Example 18, 6-(3-Chlorobenzyl)-1-(2-ethylphenyl)-1,5-dihydro-4H-pyrazolo[3,4-d]pyrimidin-4-one] | 208 °C
5 | O=c1[nH]c(Cc2cccc(Cl)c2)nc2c1cnn2-c1ccccc1C(F)(F)F (as salt: sodium) [Example 19, 6-(3-Chlorobenzyl)-1-(2-trifluoromethylphenyl)-1,5-dihydro-4H-pyrazolo[3,4-d]pyrimidin-4-one] | 152 °C
6 | O=c1[nH]c(Cc2cccc(Cl)c2)nc2c1cnn2-c1ccccc1F (as salt: sodium) [Example 20, 6-(3-Chlorobenzyl)-1-(2-fluorophenyl)-1,5-dihydro-4H-pyrazolo[3,4-d]pyrimidin-4-one] | 197 °C
7 | O=c1[nH]c(Cc2cccc(Cl)c2)nc2c1cnn2-c1ccccc1Cl (as salt: sodium) [Example 21, 6-(3-Chlorobenzyl)-1-(2-chlorophenyl)-1,5-dihydro-4H-pyrazolo[3,4-d]pyrimidin-4-one] | 188 °C
8 | O=c1[nH]c(Cc2cccc(Cl)c2)nc2c1cnn2-c1ccccn1 (as salt: sodium) [Example 22, 6-(3-Chlorobenzyl)-1-(2-pyridinyl)-1,5-dihydro-4H-pyrazolo[3,4-d]pyrimidin-4-one] | 230 °C
9 | COc1ccccc1-n1ncc2c(=O)[nH]c(Cc3cccc(Cl)c3)nc21 (as salt: sodium) [Example 23, 6-(3-Chlorobenzyl)-1-(2-methoxyphenyl)-1,5-dihydro-4H-pyrazolo[3,4-d]pyrimidin-4-one] | 196 °C

target: T2, PDE9A (Homo sapiens, UniProt O76083); assay: PDE inhibition: recombinant PDE9A scintillation proximity assay; assay type: biochemical; design: made in house; host or cells: Sf9 cells (pFASTBAC baculovirus expression system); details: inhibiting effect on PDE9A, recombinant enzyme expressed in Sf9 cells, [8-3H]cGMP substrate
T2 sequence (O76083 whole entry): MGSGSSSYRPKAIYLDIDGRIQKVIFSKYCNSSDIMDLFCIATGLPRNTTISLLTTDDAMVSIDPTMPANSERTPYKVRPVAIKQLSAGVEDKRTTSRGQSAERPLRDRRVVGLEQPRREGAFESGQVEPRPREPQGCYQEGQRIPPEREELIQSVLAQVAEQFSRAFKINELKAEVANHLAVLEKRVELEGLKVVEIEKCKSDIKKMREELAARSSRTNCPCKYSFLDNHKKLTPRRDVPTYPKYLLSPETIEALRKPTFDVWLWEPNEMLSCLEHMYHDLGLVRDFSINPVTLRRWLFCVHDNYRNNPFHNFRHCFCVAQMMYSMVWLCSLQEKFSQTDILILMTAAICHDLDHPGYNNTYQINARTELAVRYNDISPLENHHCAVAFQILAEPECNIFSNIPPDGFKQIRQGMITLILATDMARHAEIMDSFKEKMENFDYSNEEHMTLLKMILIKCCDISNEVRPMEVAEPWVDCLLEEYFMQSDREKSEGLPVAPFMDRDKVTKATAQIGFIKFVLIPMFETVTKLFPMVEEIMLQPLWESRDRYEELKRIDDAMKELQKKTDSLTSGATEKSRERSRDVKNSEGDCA
From the text: Recombinant PDE1C (GenBank/EMBL Accession Number: NM_005020, Loughney et al. J. Biol. Chem. 1996 271, 796-806), PDE2A (GenBank/EMBL Accession Number: NM_002599, Rosman et al. Gene 1997 191, 89-95), PDE3B (GenBank/EMBL Accession Number: NM_000922, Miki et al. Genomics 1996, 36, 476-485), PDE4B (GenBank/EMBL Accession Number: NM_002600, Obernolte et al. Gene. 1993, 129, 239-247), PDE5A (GenBank/EMBL Accession Number: NM_001083, Loughney et al. Gene 1998, 216, 139-147), PDE7B (GenBank/EMBL Accession Number: NM_018945, Hetman et al. Proc. Natl. Acad. Sci. U.S.A. 2000, 97, 472-476), PDE8A (GenBank/EMBL Accession Number: AF 056490, Fisher et al. Biochem. Biophys. Res. Commun. 1998 246, 570-577), PDE9A (Fisher et al., J. Biol. Chem., 1998, 273 (25): 15559-15564), E10A (GenBank/EMBL Accession Number: NM_06661, Fujishige et al. J Biol Chem. 1999, 274, 18438-45), PDE11A (GenBank/EMBL Accession Number: NM_016953, Fawcett et al. Proc. Natl. Acad. Sci. 2000, 97, 3702-3707) were expressed in Sf9 cells with the aid of the pFASTBAC baculovirus expression system (GibcoBRL).
The test substances are dissolved in 100% DMSO and serially diluted to determine their in vitro effect on PDE 9A. Typically, serial dilutions from 200 μM to 1.6 μM are prepared (resulting final concentrations in the assay: 4 μM to 0.032 μM). 2 μL portions of the diluted substance solutions are introduced into the wells of microtiter plates (Isoplate; Wallac Inc., Atlanta, Ga.). Then 50 μL of a dilution of the PDE9A preparation described above are added. The dilution of the PDE9A preparation is chosen so that less than 70% of the substrate is converted during the subsequent incubation (typical dilution: 1:10000; dilution buffer: 50 mM Tris/HCl pH 7.5, 8.3 mM MgCl2, 1.7 mM EDTA, 0.2% BSA). The substrate, [8-^3H] guanosine 3′,5′-cyclic phosphate (1 μCi/μL; Amersham Pharmacia Biotech., Piscataway, N.J.) is diluted 1:2000 with assay buffer (50 mM Tris/HCl pH 7.5, 8.3 mM MgCl2, 1.7 mM EDTA) to a concentration of 0.0005 μCi/μL. The enzyme reaction is finally started by adding 50 μL (0.025 μCi) of the diluted substrate. The assay mixtures are incubated at room temperature for 60 min and the reaction is stopped by adding 25 μl of a PDE9A inhibitor (e.g. the inhibitor from preparation example 1, final concentration 10 μM) dissolved in assay buffer. Immediately thereafter, 25 μL of a suspension containing 18 mg/mL Yttrium Scintillation Proximity Beads (Amersham Pharmacia Biotech., Piscataway, N.J.) are added. […] The plates are then measured for 30 s per well in a Microbeta scintillation counter (Wallac Inc., Atlanta, Ga.). IC50 values are determined from the graphical plot of the substance concentration versus the percentage inhibition. […]

Row | SMILES | IC50
10 | Cc1cccc(-n2ncc3c(=O)[nH]c(Cc4cccc(Cl)c4)nc32)c1C [Example 2, 6-(3-Chlorobenzyl)-1-(2,3-dimethylphenyl)-1,5-dihydropyrazolo[3,4-d]pyrimidin-4-one] | 50 nM
11 | O=c1[nH]c(Cc2cccc(Cl)c2)nc2c1cnn2-c1c(Cl)cccc1Cl [Example 4, 6-(3-Chlorobenzyl)-1-(2,6-dichlorophenyl)-1,5-dihydropyrazolo[3,4-d]pyrimidin-4-one] | 64 nM
12 | Cc1ccccc1-n1ncc2c(=O)[nH]c(Cc3ccccc3Br)nc21 [Example 9, 6-(2-Bromobenzyl)-1-(2-methylphenyl)-1,5-dihydropyrazolo[3,4-d]pyrimidin-4-one] | < 30 nM
13 | O=c1[nH]c(Cc2cccc(Cl)c2)nc2c1cnn2-c1ccccc1Cl [Example 21, 6-(3-Chlorobenzyl)-1-(2-chlorophenyl)-1,5-dihydro-4H-pyrazolo[3,4-d]pyrimidin-4-one] | < 30 nM

target: T2, PDE9A; assay: not given; details: concentrations of up to 100 μM; cited from earlier work

Row | SMILES | inhibition on the isolated enzyme
14 | CC(C)Cn1c(=O)n(C)c(=O)c2[nH]cnc21 [IBMX] | no inhibition
15 | CC(=O)Nc1ccc(-c2c[nH]c(=O)cn2)cc1 [SKF94120] | no inhibition
16 | OCCN(CCO)c1nc(N2CCCCC2)c2nc(N(CCO)CCO)nc(N3CCCCC3)c2n1 [dipyridamole] | no inhibition
17 | COc1ccc(C2CNC(=O)C2)cc1OC1CCCC1 (stereo not drawn) [rolipram] | no inhibition
18 | CCOC(=O)C1=C[C@]2(CC)CCCN3CCc4c(n1c1ccccc41)[C@@H]32 [vinpocetine] | no inhibition
